Entries after “also recorded” stand apart in the source; their conditions may differ.

The assay deals with mouse FAT mRNA. Briefly: FAT mRNA expression in whole brain of mice treated with lithium or valproate, quantitative real-time PCR. As to conditions: C57B16 mice, intraperitoneal once daily for 7 days (lithium 340 mg/kg/day; valproate 350 mg/kg/day).

For the compound `CCCC(CCC)C(=O)O` [valproate, 2-propylpentanoic acid], the “effect on relative FAT mRNA expression level (relative to GAPDH mRNA)” value is given as “appear to reduce; also recorded: appears to be reduced”.

Source of the values: US20070202502A1, “Assay For Bipolar Affective Disorder” (priority 2004, published 2007).
